According to patent EP0072137A1, “Antiviral deoxyuridine compounds” (BEECHAM GROUP PLC, priority 1981, dated 1983):
Converted amounts (≈) assume the structure as drawn. Where two headings read alike, the source gives them in different places.

Key:
[1] = In vivo blood level study: antiviral activity of mouse serum titrated in plaque inhibition assays; set-up: species or system Balb/c mice
Experimental: Single 100 mg/kg doses of the compound were administered orally as suspensions in carboxymethyl cellulose to groups of 3 starved female Balb/c mice. Blood was collected 120 minutes after dosing and the serum separated and stored at -20°C. Heat inactivated sera from single mice were titrated in plaque inhibition assays using the KOS strain of Herpes simplex type 1 virus in Vero cell monolayers. Antiviral activity is calculated by extrapolation from a standard inhibition dose response curve for E-5-(2-bromovinyl)-2'-deoxyuridine and is quoted as the equivalent concentration of E-5-(2-bromovinyl)-2'-deoxyuridine (in ug/mL) giving the same antiviral activity in cell culture.

[2] = test system: Herpes simplex type 1 virus (HFEM strain); assay: Plaque reduction assay in cell culture; type: cell-based; details: Human alphaherpesvirus 1, 144 h; concentration causing a 50% reduction in the number of virus plaques; HSV-1 HFEM strain in Vero cells, 37°C, 6 days; read-out: PDD50 (the source's name)
Experimental: (§1) Vero (African Green Monkey Kidney) cells were grown to confluence in 6 well multidishes, each well being 3.5 cm in diameter. The cells were incubated with Herpes simplex type 1 virus (HFEM strain) and overlaid with 0.5 ml of 0.9% agarose (w/v) in maintenance medium containing the test compound at a range of concentrations from 100 pg/mL in half-log dilution steps. The virus infected cultures were then incubated at 37°C for 6 days before fixing in 4% formaldehyde solution and staining with carbolfuchsin. The dishes were then examined to find what concentration of test compound causing a 50% reduction in the number of virus plaques formed (PDD50 value) and the minimum concentration of test compound which killed the cell monolayer, leaving a clear zone devoid of cells and virus plaques (MTD).

[3] = Toxicity to the cell monolayer (MTD) in the plaque reduction assay; type: cell-based; details: monkey; minimum concentration which killed the cell monolayer; Vero cells, 6 days
Experimental: as §1

Row | SMILES | concentration at 2 h ([1]; single 100 mg/kg oral dose, suspension in carboxymethyl cellulose, starved female Balb/c mice, 120 minutes after dosing, HSV-1 KOS in Vero cell monolayers, read-out: Antiviral activity in serum, as equivalent concentration of E-5-(2-bromovinyl)-2'-deoxyuridine) [ng/mL] | EC50 [2] [µg/mL] | MCC at 144 h [3] [µg/mL] | concentration at 2 h ([1]; po, 100 mg/kg) [ng/mL]
1 | O=c1[nH]c(=O)n([C@H]2C[C@H](O)[C@@H](CO)O2)cc1/C=C/Br [E-5-(2-bromo-vinyl)-2'-deoxyuridine, E-5-(2-bromovinyl)-2'-deoxyuridine, reference compound] | 1700 ± 500 | – | – | –
2 | Cn1c(=O)c(/C=C/Br)cn([C@H]2C[C@H](O)[C@@H](CO)O2)c1=O [Example 1, E-3-methyl-5-(2-bromovinyl)-2'-deoxyuridine] | – | 5.4 (≈ 15.6 µM) | > 100 | 3100 ± 800
